US9329185B2, “Sulfonate compounds” (University of Massachusetts, priority 2013, dated 2016)

Columns and labels:
[1] = Cleavage of reductive-labile protecting group by a reducing agent (TLC analysis); format: physicochemical; details: 1 mM reducing agent (dithiothreitol or tris(2-carboxyethyl)phosphine), 30 minutes, room temperature, water (pH 7), analyzed by TLC
Description: Compound 1 was treated with 1 mM of a reducing agent, i.e., dithiothreitol or tris(2-carboxyethyl)phosphine, for 30 minutes at room temperature in water (pH 7). The solution was analyzed by TLC. A control experiment was conducted by analyzing an aqueous solution containing Compound 1 without being treated with a reducing agent by using TLC.

For `Cc1ccc(C(OS(=O)(=O)CCCN2CCCc3cc4c(cc32)Oc2cc3c(cc2=N4)CCC[N+]=3CCCS(=O)(=O)OC(c2ccc(C)cc2)C(F)(F)F)C(F)(F)F)cc1` (stereo not drawn), the melting point was 220 to 222 °C (dec.).
With `CSSc1ccc(C(OS(=O)(=O)c2cccc3c(N(C)C)cccc23)C(F)(F)F)cc1` (stereo not drawn) [Compound 1, 2,2,2-trifluoro-1-(4-(methyldisulfanyl)phenyl)-ethyl 5-(dimethylamino)naphthalene-1-sulfonate] the “cleavage of the protecting group to form a deprotected sulfonate dye” value [1] was “rapidly cleaved”.
For `Cc1ccc(C(OS(=O)(=O)CCCCl)C(F)(F)F)cc1` (stereo not drawn) [Compound 22, 2,2,2-trifluoro-1-(p-tolyl)ethyl 3-chloropropane-1-sulfonate], the melting point was 61 to 63 °C.
